The target in assay [1] is T1, purified wild type MGL (wt-MGLL 6H-11-313) (Homo sapiens, UniProt Q99685).
T1 construct: purified wild type MGL (wt-MGLL 6H-11-313)
T1 sequence (Q99685 1-303): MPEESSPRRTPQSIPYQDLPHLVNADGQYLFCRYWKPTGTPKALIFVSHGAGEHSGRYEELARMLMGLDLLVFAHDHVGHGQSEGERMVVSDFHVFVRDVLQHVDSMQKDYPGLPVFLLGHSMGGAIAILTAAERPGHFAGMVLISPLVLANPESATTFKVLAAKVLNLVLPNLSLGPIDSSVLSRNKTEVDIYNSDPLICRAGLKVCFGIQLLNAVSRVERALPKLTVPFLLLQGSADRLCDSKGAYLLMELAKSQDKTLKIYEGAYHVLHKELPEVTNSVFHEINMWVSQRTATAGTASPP
In words: MGL enzyme activity assay (4MU-B cleavage), wild type MGL. Type of assay: biochemical. The following applies: 10 μM 4MU-B, 5 nM enzyme, 37° C., read-out: MGL wild type inh IC50. The method in brief: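 Enzyme (5 nM final) cleaved 4MU-B (10 μM final) in 20 mM PIPES pH 7.0 with 150 mM NaCl and 0.001% Tween 20. Compounds were tested at 17 to 0.0003 μM final. Fluorescence (ex 335/em 440 nm) was monitored at 37° C for 5 min, and IC50 was fitted from fractional activity versus inhibitor concentration.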

The target in the next assay is T2, MGL (Rattus norvegicus, UniProt Q8R431).
T2 construct: one g rat brain was homogenized; from tissue; host or cells: rat brain homogenate
T2 sequence (Q8R431 1-303): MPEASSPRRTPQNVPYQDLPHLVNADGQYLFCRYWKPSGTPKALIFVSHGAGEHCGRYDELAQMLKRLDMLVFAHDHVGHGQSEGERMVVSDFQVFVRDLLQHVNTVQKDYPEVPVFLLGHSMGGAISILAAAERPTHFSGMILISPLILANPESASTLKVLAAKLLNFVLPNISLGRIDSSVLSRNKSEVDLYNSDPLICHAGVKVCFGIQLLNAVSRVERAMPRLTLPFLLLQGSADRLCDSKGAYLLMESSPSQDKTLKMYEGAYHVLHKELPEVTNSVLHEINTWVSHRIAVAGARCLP
In words: 2-AG accumulation assay in rat brain homogenate. In kind it is biochemical. The following applies: compound @1 μM, read-out: Rat Brain 2AG % VehCntrl (%) @1 μM. How it is done: After a 15-min incubation time at 37° C., CaCl2 (final concentration=10 mM) was added and then incubated for 15 min at 37° C. in a total volume of 5 mL. The reactions were stopped with 6 mL organic solvent extraction solution of 2:1 chloroform/methanol. Accumulated 2-AG in the organic phase was measured by a HPLC/MS method, according to the following equation: percent vehicle=(2-AG accumulation in the presence of compound/2-AG accumulation in vehicle)×100.

A further assay deals with T3, mutant MGL (Homo sapiens, UniProt Q99685, L169S/L176S).
T3 construct: purified mutant MGL (mut-MGLL 11-313 L179S L186S)
T3 sequence (Q99685 1-303 L169S/L176S): T1 sequence (Q99685 1-303) with L169S, L176S
In words: MGL ThermoFluor assay - mutant. In kind it is binding. The method in brief: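 Thermal shift binding with 0.07 mg/ml L169S/L176S MGL, 100 μM 1,8-ANS, 200 mM NaCl, 0.001% Tween-20, 50 mM PIPES pH 7.0. Heated 40–90 °C at 1 °C/min, fluorescence (em 500 nm) tracked to give Tm; Kd fitted from 11-point concentration–Tm response, qKd when stocks quantified by qNMR.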

[2] abbreviates: 0.07 mg/ml mutant MGL, pH=7.0, read-out: MGL mutant ThermoFluor Kd.
Where [3] appears, read: compound concentration measured by qNMR, read-out: MGL mutant ThermoFluor qKd (using qNMR conc.).

Positions count from the first letter of the chain named. Like-named read-outs stand apart in the source and are kept apart here.

With `Cc1c(C(=O)N2CC(C3CCN(C(=O)c4ccc[nH]4)CC3)C2)sc2cc(C(F)(F)F)ccc12` [Cpd 26, 4-(1-{[3-Methyl-6-(trifluoromethyl)-1-benzothiophen-2-yl]carbonyl}azetidin-3-yl)-1-(1H-pyrrol-2-ylcarbonyl)piperidine], the concentration for half-maximal inhibition (IC50) in assay [1] is under 5 nM. The 2-AG accumulation, percent of vehicle control at 1 µM on MGL was found to be 303%. Also, at mutant MGL (setting [2]), the Kd came out at 3.6 nM.

With `O=C(c1ccc2nc(-c3ccccc3)oc2c1)N1CCC(C2CN(C(=O)c3cscn3)C2)CC1` [Cpd 67, 2-Phenyl-6-({4-[1-(1,3-thiazol-4-ylcarbonyl)azetidin-3-yl]piperidin-1-yl}carbonyl)-1,3-benzoxazole], the IC50 in assay [1] was determined as 66.5 nM. Also, the 2-AG accumulation, percent of vehicle control at 1 µM on MGL came to 590%. Moreover, the Kd on mutant MGL (setting [3]) was 6.6 nM.

As to `O=C(c1ccc2c(ccn2-c2ccc(F)cc2)c1)N1CC(C2CCN(C(=O)c3cscn3)CC2)C1` [Cpd 36, 1-(4-Fluorophenyl)-5-({3-[1-(1,3-thiazol-4-ylcarbonyl)piperidin-4-yl]azetidin-1-yl}carbonyl)-1H-indole], in assay [1], the IC50 was under 5 nM. Also, the 2-AG accumulation, percent of vehicle control at 1 µM on MGL came out at 507%. In addition, the Kd on mutant MGL (setting [2]) worked out at 22.5 nM.

Regarding `O=C(c1ccc2c(ccn2-c2ccc(F)c(F)c2)c1)N1CC(C2CCN(C(=O)c3ccc[nH]3)CC2)C1` [Cpd 44], the half-inhibitory concentration (IC50) in assay [1] was under 5 nM. On MGL, the 2-AG accumulation, percent of vehicle control at 1 µM was found to be 107%. Moreover, the Kd on mutant MGL (setting [3]) came to 21.3 nM.

`O=C(c1ccc[nH]1)N1CC(C2CCN(C(=O)c3sc4cc(C(F)(F)F)ccc4c3Cl)CC2)C1` [Cpd 71, 1-{[3-Chloro-6-(trifluoromethyl)-1-benzothiophen-2-yl]carbonyl}-4-[1-(1H-pyrrol-2-ylcarbonyl)azetidin-3-yl]piperidine]: the IC50 in assay [1] is 12 nM. Also, the 2-AG accumulation, percent of vehicle control at 1 µM on MGL was determined as 552%. The Kd at mutant MGL (setting [3]) was determined as 1.2 nM.

As to `O=C(c1ccc(-c2ccc(C(F)(F)F)s2)cc1)N1CC(C2CCN(C(=O)c3nccs3)CC2)C1` [Cpd 18, 1-(1,3-Thiazol-2-ylcarbonyl)-4-[1-({4-[5-(trifluoromethyl)thiophen-2-yl]phenyl}carbonyl)azetidin-3-yl]piperidine], in assay [1], the IC50 was 12.5 nM. Besides, the 2-AG accumulation, percent of vehicle control at 1 µM on MGL is 457%. The Kd at mutant MGL (setting [2]) came to 3 nM.

Turning to `O=C(c1ccc(Cc2cccc(C(F)(F)F)c2)cc1)N1CC(C2CCN(C(=O)c3cscn3)CC2)C1` [Cpd 13, 1-(1,3-Thiazol-4-ylcarbonyl)-4-[1-({4-[3-(trifluoromethyl)benzyl]phenyl}carbonyl)azetidin-3-yl]piperidine], in assay [1], the concentration for half-maximal inhibition (IC50) is under 5 nM. Further, the 2-AG accumulation, percent of vehicle control at 1 µM at MGL worked out at 335%. Also, the Kd at mutant MGL (setting [2]) was found to be 28 nM.

As for `Cc1c(C(=O)N2CCC(C3CN(C(=O)c4nccs4)C3)CC2)sc2cc(C(F)(F)F)ccc12` [Cpd 60, 1-{[3-Methyl-6-(trifluoromethyl)-1-benzothiophen-2-yl]carbonyl}-4-[1-(1,3-thiazol-2-ylcarbonyl)azetidin-3-yl]piperidine], the IC50 in assay [1] was found to be 10 nM. For the same molecule, on MGL, the 2-AG accumulation, percent of vehicle control at 1 µM was found to be 508%. The Kd was determined as 0.8 nM on mutant MGL (setting [2]) and 0.5 nM on mutant MGL (setting [3]).

Take `O=C(c1ccc[nH]1)N1CCC(C2CN(C(=O)c3ccc(-c4ccccc4)cc3F)C2)CC1` [Cpd 21, 4-{1-[(3-Fluorobiphenyl-4-yl)carbonyl]azetidin-3-yl}-1-(1H-pyrrol-2-ylcarbonyl)piperidine]: the IC50 in assay [1] amounted to 12.4 nM. On MGL, the 2-AG accumulation, percent of vehicle control at 1 µM turned out to be 287%. Further, the Kd on mutant MGL (setting [2]) was determined as 28.6 nM.

Consider `O=C(c1nccs1)N1CCC(C2CN(C(=O)c3sc4cc(F)ccc4c3Cl)C2)CC1` [Cpd 8, 4-{1-[(3-Chloro-6-fluoro-1-benzothiophen-2-yl)carbonyl]azetidin-3-yl}-1-(1,3-thiazol-2-ylcarbonyl)piperidine], for which the IC50 in assay [1] is 7 nM. In addition, at MGL, the 2-AG accumulation, percent of vehicle control at 1 µM was 523%. Moreover, the Kd on mutant MGL (setting [2]) stood at 4 nM.

For `O=C(c1ccc2nc(-c3ccccc3)oc2c1)N1CC(C2CCN(C(=O)c3cscn3)CC2)C1` [Cpd 34, 2-Phenyl-6-({3-[1-(1,3-thiazol-4-ylcarbonyl)piperidin-4-yl]azetidin-l-yl}carbonyl)-1,3-benzoxazole], the IC50 in assay [1] is 54.4 nM. Moreover, at MGL, the 2-AG accumulation, percent of vehicle control at 1 µM worked out at 517%. Also, on mutant MGL (setting [2]), the Kd turned out to be 198 nM.

With `O=C(c1ccc(Cc2ccc(C(F)(F)F)cc2)cc1)N1CCC(C2CN(C(=O)c3cscn3)C2)CC1` [Cpd 64, 4-[1-(1,3-Thiazol-4-ylcarbonyl)azetidin-3-yl]-1-({4-[4-(trifluoromethyl)benzyl]phenyl}carbonyl)piperidine], the IC50 in assay [1] is under 5 nM. On MGL, the 2-AG accumulation, percent of vehicle control at 1 µM was found to be 383%. At mutant MGL (setting [3]), the Kd is 18.9 nM.

Take `O=C(c1ccc(-c2ccccc2)cc1)N1CC(C2CCN(C(=O)c3ccns3)CC2)C1` [Cpd 3, 4-[1-(Biphenyl-4-ylcarbonyl)azetidin-3-yl]-1-(isothiazol-5-ylcarbonyl)piperidine]: the IC50 in assay [1] turned out to be 33.9 nM. Also, the 2-AG accumulation, percent of vehicle control at 1 µM at MGL came out at 135%. The Kd on mutant MGL (setting [2]) was 55.7 nM.

For `O=C(c1ccc2nc(-c3ccccc3)oc2c1)N1CCC(C2CN(C(=O)c3ccc[nH]3)C2)CC1` [Cpd 68, 2-Phenyl-6-({4-[1-(1H-pyrrol-2-ylcarbonyl)azetidin-3-yl]piperidin-1-yl}carbonyl)-1,3-benzoxazole], the IC50 in assay [1] was found to be 62.1 nM. The 2-AG accumulation, percent of vehicle control at 1 µM on MGL came out at 453%. Further, the Kd on mutant MGL (setting [3]) stood at 14.5 nM.

As to `O=C(c1ccc2nc(-c3ccccc3)oc2c1)N1CC(C2CCN(C(=O)c3ccc[nH]3)CC2)C1` [Cpd 40, 2-Phenyl-6-({3-[1-(1H-pyrrol-2-ylcarbonyl)piperidin-4-yl]azetidin-1-yl}carbonyl)-1,3-benzoxazole], the IC50 in assay [1] is 9 nM. Moreover, at MGL, the 2-AG accumulation, percent of vehicle control at 1 µM worked out at 361%. At mutant MGL (setting [3]), the Kd turned out to be 94.6 nM.

With `O=C(c1ccc2c(ccn2-c2ccc(F)c(F)c2)c1)N1CCC(C2CN(C(=O)c3cscn3)C2)CC1` [Cpd 79, 1-(3,4-Difluorophenyl)-5-({4-[1-(1,3-thiazol-4-ylcarbonyl)azetidin-3-yl]piperidin-1-yl}carbonyl)-1H-indole], in assay [1], the IC50 came out at 9 nM. In addition, on MGL, the 2-AG accumulation, percent of vehicle control at 1 µM stood at 946%. The Kd on mutant MGL (setting [3]) is 3.3 nM.

In the case of `O=C(c1nccs1)N1CC(C2CCN(C(=O)c3ccc(-c4ccccc4)cc3F)CC2)C1` [Cpd 45], the half-maximal inhibitory concentration (IC50) in assay [1] is under 5 nM. Further, the 2-AG accumulation, percent of vehicle control at 1 µM on MGL was 385%. Also, the Kd at mutant MGL (setting [3]) was 12.2 nM.

Consider `O=C(c1ccc(-c2ccc(C(F)(F)F)s2)cc1)N1CC(C2CCN(C(=O)c3cscn3)CC2)C1` [Cpd 12, 1-(1,3-Thiazol-4-ylcarbonyl)-4-[1-({4-[5-(trifluoromethyl)thiophen-2-yl]phenyl}carbonyl)azetidin-3-yl]piperidine], for which, in assay [1], the IC50 turned out to be 10 nM. Moreover, on MGL, the 2-AG accumulation, percent of vehicle control at 1 µM was 134%. For the same molecule, the Kd on mutant MGL (setting [2]) came out at 22 nM.

`O=C(c1nccs1)N1CC(C2CCN(C(=O)c3sc4cc(C(F)(F)F)ccc4c3Cl)CC2)C1` [Cpd 69, 1-{[3-Chloro-6-(trifluoromethyl)-1-benzothiophen-2-yl]carbonyl}-4-[1-(1,3-thiazol-2-ylcarbonyl)azetidin-3-yl]piperidine]: in assay [1], the half-maximal inhibitory concentration (IC50) is under 5 nM. In addition, at MGL, the 2-AG accumulation, percent of vehicle control at 1 µM was 539%. Besides, the Kd on mutant MGL (setting [3]) was 1.2 nM.

As usually defined, the IC50 is the concentration needed to halve the response being measured.
